From patent US20230346820A1, “METHODS AND COMPOSITIONS FOR THE TREATMENT OF SARS-COV-2” (priority 2020, published 2023)
Counter-ions that a name gives are not always drawn. Like-named read-outs stand apart in the source and are kept apart here.

Tests used:
SARS-CoV-2 [1] = test system: SARS-CoV-2
HeLa-ACE2 cells [2] = test system: HeLa-ACE2 cells
SARS-CoV-2 [3] = conditions: for EC50: read-out: Calu-3 CoV-2 EC50
SARS-CoV-2 [4] = experiment: microbe, parasite or virus in culture
[5] = rat, oral; cited from earlier work
in vitro = conditions: human
SARS-CoV-2 [6] = experiment: Checkerboard synergy study with remdesivir (ZIP model, synergyfinder); format: cell-based
HeLa-ACE2 cells [7] = experiment: cells; format: cell-based, human
[8] = human, oral; cited from earlier work
SARS-CoV-2 [9] = experiment: Time of addition (TOA) assay in HeLa-ACE2 cells; format: cell-based
[10] = read-out: Calu-3 Uninfected Tox CC50, Table 4, aggregated data, Geomean, n = 3
[11] = read-out: HeLa-ACE2 CoV-2 EC50, Table 4, aggregated data, Geomean, n = 3
[12] = read-out: HeLa-ACE2 Uninfected Tox CC50, Table 4, aggregated data, Geomean, n = 3
[13] = Table 4, aggregated data, Geomean, n = 3, 48 h
[14] = Severe acute respiratory syndrome coronavirus 2, HeLa-ACE2, 24 h, read-out: CoV-2 EC50 [μM] (Geomeans, n ≥ 2)
[15] = CC50 [μM] (Geomeans, n ≥ 2 except where indicated: *n = 1)
[16] = Severe acute respiratory syndrome coronavirus 2, HeLa-ACE2, read-out: SARS CoV-2 EC50 (μM)
[17] = read-out: HeLa-ACE-2 EC50 [μM] (Geomeans, n ≥ 2)
[18] = Table 1, ZIP model, δ>10 synergy, δ<−10 antagonism, between additive
[19] = Homo sapiens, HeLa-ACE2, read-out: HeLa-ACE-2 EC50 [μM] (Geomeans, n ≥ 2)

Compound | CC50 (Calu-3 cells; [10]) [µM] | EC50 (SARS-CoV-2 [1]; [11]) [µM] | CC50 (HeLa-ACE2 cells [2]; [12]) [µM] | Calu3 SI CC50/CoV-2 EC50 (SARS-CoV-2 [3]; Table 4) | EC50 (SARS-CoV-2 [3]; [13]) [µM] | HeLa-ACE2 CC50/CoV-2 EC50 (SARS-CoV-2 [1]) | EC50 (SARS-CoV-2 [4]; [14]) [µM] | also measured
CSc1ncnc2c1ncn2[C@@H]1O[C@H](CO)[C@@H](O)[C@H]1O [6-Methyl mercaptopurineriboside] | 1.2 | 3.6 | 15.4 | 5.80 | 0.207 |  |  | HeLa-ACE2 SI CC50/CoV-2 EC50 (SARS-CoV-2 [1]; Table 4): 4.27
Oc1ccc(Nc2ccnc3cc(Cl)ccc23)cc1CN1CCCC1 [AMOPYROQUINE] |  |  |  |  |  | 19.02 | 0.904 | CC50 (HeLa-ACE2 cells [2]; human): 17.2 µM
CCOc1ccc(Cc2nc3cc(N(C)S(=O)(=O)c4cccs4)ccc3n2CC2CCCCC2)nc1 [AZ-11713908] | > 29.9 | > 9.59 | 33 | >8 | 3.54 |  |  | 
Cn1cnc([N+](=O)[O-])c1Sc1ncnc2[nH]cnc12 [Azathioprin] |  |  |  |  |  |  |  | CC50 (Calu-3 cells): 3.55 µM; HeLa-ACE2 SI CC50/CoV-2 EC50 (SARS-CoV-2 [1]): 7.67; EC50 (SARS-CoV-2 [1]; read-out: HeLa-ACE2 CoV-2 EC50): 5.08 µM; CC50 (HeLa-ACE2 cells [2]): 39 µM; Calu3 SI CC50/CoV-2 EC50 (SARS-CoV-2 [3]): 7.35; EC50 (SARS-CoV-2 [3]): 0.482 µM
O=c1[nH]c2ccc(C(F)(F)F)cc2c(-c2cc(Cl)ccc2O)c1CCO [BMS-223131] | > 29.9 | > 9.59 | 21.4 | >5.8 | 5.14 |  |  | 
Cc1nc2c(s1)C(=O)C=C(NCCN(C)C)C2=O [BN-82685] | 5.96 | 1.53 | 4.66 | 5.69 | 3.05 |  |  | HeLa-ACE2 SI CC50/CoV-2 EC50 (SARS-CoV-2 [1]; Table 4): 3.04
Nc1nccc2c1ncn2C1C=C(CO)C(O)C1O (centres unmarked) [DEAZANEPLANOCINA] | 10.3 | > 9.59 | 7.95 | 182.24 | 0.057 |  |  | 
CCc1ccc2c(c1)N(CC(C)CN(C)C)c1ccccc1S2 (centres unmarked) [Ethylisobutrazine Hydrochloride] |  |  |  |  |  | 10.48 | 2 | CC50 (HeLa-ACE2 cells [2]; human): 20.9 µM
N#Cc1c(N)nc(N)nc1N[C@H](c1nc2c(F)ccc(Cl)c2c(=O)n1-c1cccnc1)C1CC1 [GS-9901] |  |  |  |  |  | >8.17 | 3.81 | Cmax [5]: ~1800 nM; t1/2 [5]: ~2 h (rat, oral)(36); CC50 (in vitro; [15]): > 31.1 µM; CC50 (in vitro; Uninfected HeLa-ACE2 CC50 (μM)): > 31.1 µM
COc1ccc2cc1Oc1ccc(cc1)C[C@H]1c3cc(c(OC)cc3CCN1C)Oc1c(OC)c(OC)cc3c1[C@H](C2)N(C)CC3 [Hanfangchin A] |  |  |  |  |  | >16.08 | 1.18 | Cmax [5]: ~500 nM; t1/2 [5]: ~20 h (rats, oral)(31); Synergy score with remdesivir (δ) (SARS-CoV-2 [6]; Table 3): −3.61; CC50 (in vitro; [15]): > 18.9 µM; CC50 (in vitro; Uninfected HeLa-ACE2 CC50 (μM)): > 18.9 µM; EC50 (SARS-CoV-2 [4]; [16]): 1.18 µM
NC1(c2ccc(-c3nc4ccn5c(=O)[nH]nc5c4cc3-c3ccccc3)cc2)CCC1 [MK-2206] |  |  |  |  |  | >20.63 |  | EC50 (HeLa-ACE2 cells [7]; [17]): > 9.59 µM; Synergy score with remdesivir (δ) (SARS-CoV-2 [6]; [18]): 2.087; Synergy score with remdesivir (δ) (SARS-CoV-2 [6]; Table 3): 2.087; EC50 (SARS-CoV-2 [1]; read-out: CoV-2 EC50 [μM] (Geomeans, n ≥ 2)): 1.1 µM; EC50 (SARS-CoV-2 [1]; read-out: SARS CoV-2 EC50): 1.1 µM; CC50 (HeLa-ACE2 cells [2]): > 22.8 µM; Cmax [8]: ~571 nM; t1/2 [8]: ~75 h (human, oral)(29)
CC(C)Oc1ccc(-c2nc(-c3cccc4c3CC[C@@H]4NCCO)no2)cc1C#N [Ozanimod] |  |  |  |  |  | >5.60 | 2.63 | Synergy score with remdesivir (δ) (SARS-CoV-2 [6]; Table 3): −4.62; CC50 (in vitro; [15]): > 14.7 µM; CC50 (in vitro; Uninfected HeLa-ACE2 CC50 (μM)): > 14.7 µM; EC50 (SARS-CoV-2 [4]; [16]): 2.63 µM; Cmax [8]: ~1200 nM; t1/2 [8]: ~21 h (human, oral)(24)
Nc1cc(OCC2CC2)c(C(=O)NC2CN3CCC2CC3)cc1Cl (centres unmarked) [Pancopride] |  |  |  |  |  | 4.32 | > 8.64 | EC50 (HeLa-ACE2 cells [7]; [19]): > 9.59 µM; Synergy score with remdesivir (δ) (SARS-CoV-2 [6]; [18]): 0.648; Synergy score with remdesivir (δ) (SARS-CoV-2 [6]; Table 3): 0.65; CC50 (in vitro; [15]): > 37.3 µM; CC50 (in vitro; Uninfected HeLa-ACE2 CC50 (μM)): > 37.3 µM; EC50 (SARS-CoV-2 [4]; [16]): > 8.64 µM; Cmax [8]: ~300 nM; t1/2 [8]: ~16 h (human, oral)(26)
CC(C)(C)Cn1c(N)nc2ccc(-c3[nH]c(C(C)(C)C)nc3-c3ccc(F)cc3)nc21 [Ralimetinib mesylate/LY2228820, Ralimetinib mesylate] |  |  |  |  |  | 14.6 | 1.87 | Synergy score with remdesivir (δ) (SARS-CoV-2 [6]; [18]): −0.846; Synergy score with remdesivir (δ) (SARS-CoV-2 [6]; Table 3): −0.846; CC50 (in vitro; [15]): 27.4 µM; activity in HeLa-ACE2 infection assay (SARS-CoV-2 [1]): active; activity in Calu-3 infection assay (SARS-CoV-2 [3]): active; Cmax [8]: ~5000 nM; t1/2 [8]: ~145 h (human, oral)(28)
COC(=O)[C@H]1[C@H]2C[C@@H]3c4[nH]c5cc(OC)ccc5c4CCN3C[C@H]2C[C@@H](OC(=O)c2cc(OC)c(OC)c(OC)c2)[C@@H]1OC [Reserpine] |  |  |  |  |  | >6.60 |  | EC50 (HeLa-ACE2 cells [7]; [17]): > 9.6 µM; EC50 (SARS-CoV-2 [1]; read-out: CoV-2 EC50 [μM] (Geomeans, n ≥ 2), Table 1, HeLa-ACE2, 24 h): > 5.51 µM; CC50 (HeLa-ACE2 cells [2]): > 36.4 µM
NCCc1cn(S(=O)(=O)c2c(Cl)nc3sccn23)c2ccccc12 [SAX-187] |  |  |  |  |  | 4.02 | 1.85 | Cmax [5]: 400 nM; t1/2 [5]: ~3 h (rat, oral)(39); EC50 (HeLa-ACE2 cells [7]; [19]): > 9.37 µM; CC50 (in vitro; [15]): 7.43 µM; CC50 (in vitro; Uninfected HeLa-ACE2 CC50 (μM)): 7.43 µM; EC50 (SARS-CoV-2 [4]; [16]): 1.85 µM
CN(C)CCOc1ccc2c(=O)c3ccc(OCCN(C)C)cc3oc2c1 [TILORINE DIHYDROCHLORIDE] |  |  |  |  |  | 11.07 | 0.884 | CC50 (HeLa-ACE2 cells [2]; human): 9.79 µM
Nc1nc2[nH]cnc2c(=S)[nH]1 [Tioguanine] |  | 0.787 | 2.82 | 6.45 | 0.127 |  |  | CC50 (Calu-3 cells): 0.822 µM; HeLa-ACE2 SI CC50/CoV-2 EC50 (SARS-CoV-2 [1]; Table 4): 3.58
CC(CN(C)C)CN1c2ccccc2CCc2ccccc21 (centres unmarked) [Trimipramine] |  |  |  |  |  | 10.11 | 2.11 | CC50 (HeLa-ACE2 cells [2]; human): 21.3 µM
CN(C)C(C(=O)Nc1ccc2c(=O)[nH]ccc2c1)c1ccsc1 (centres unmarked) [Verosudil] | 18.9 | > 9.59 | > 39.8 | 5.39 | 3.51 |  |  | 
COC1(c2cc(F)cc(OCc3ccc4c(ccc(=O)n4C)c3)c2)CCOCC1 [ZD 2138] | 14.4 | > 9.59 | 28.7 | 5.18 | 2.79 |  |  | 
CC(=O)OC[C@H]1O[C@@H]([S-])[C@H](OC(C)=O)[C@@H](OC(C)=O)[C@@H]1OC(C)=O.CCP(CC)CC.[Au+] [auranofin] | 3.13 | 0.988 | 0.634 | 7.87 | 0.525 |  |  | HeLa-ACE2 SI CC50/CoV-2 EC50 (SARS-CoV-2 [1]; Table 4): 0.64
CC[C@H]1OC(=O)[C@H](C)[C@@H](O[C@H]2C[C@@](C)(OC)[C@@H](O)[C@H](C)O2)[C@H](C)[C@@H](O[C@@H]2O[C@H](C)C[C@H](N(C)C)[C@H]2O)[C@](C)(O)C[C@@H](C)CN(C)[C@H](C)[C@@H](O)[C@]1(C)O [azithromycin] |  |  |  |  |  |  |  | classification as entry inhibitor in HeLa-ACE2 cells (SARS-CoV-2 [9]): entry inhibitors; activity in Calu-3 infection assay (SARS-CoV-2 [3]): not active
COC(=O)C1=C(C)NC(C)=C(C(=O)OCCN2CCN(C(c3ccccc3)c3ccccc3)CC2)C1c1cccc([N+](=O)[O-])c1 (centres unmarked) [manidipine] |  |  |  |  |  | >2.48 | > 6.89 | Synergy score with remdesivir (δ) (SARS-CoV-2 [6]; [18]): −4.727; Synergy score with remdesivir (δ) (SARS-CoV-2 [6]; Table 3): −4.727; CC50 (in vitro; [15]): > 17.1 µM; CC50 (in vitro; Uninfected HeLa-ACE2 CC50 (μM)): > 17.1 µM; EC50 (SARS-CoV-2 [4]; [16]): > 6.89 µM; Cmax [8]: ~10 nM; t1/2 [8]: ~3 h (human, oral)(23)
Cc1c(O)cccc1C(=O)N[C@@H](CSc1ccccc1)[C@H](O)CN1C[C@H]2CCCC[C@H]2C[C@H]1C(=O)NC(C)(C)C [nelfinavir mesylate] |  |  |  |  |  | >2.08 | > 8.64 | Synergy score with remdesivir (δ) (SARS-CoV-2 [6]; [18]): −1.233; CC50 (in vitro; [15]): > 18 µM; CC50 (in vitro; Uninfected HeLa-ACE2 CC50 (μM)): > 18 µM; Cmax [8]: ~17000 nM; t1/2 [8]: ~4 h (human oral)(20)
Antimycin A3 | 3.9 | > 9.59 | > 39.8 | 109.64 | 0.036 |  |  | 
Cloturin | 2.01 | 3.88 | 31.5 | 6.62 | 0.304 |  |  | HeLa-ACE2 SI CC50/CoV-2 EC50 (SARS-CoV-2 [1]; Table 4): 8.13
